Data taken from PMC3368886, “ATPase Cycle and DNA Unwinding Kinetics of RecG Helicase” (PLoS ONE, 2012).
pKi: −log10 of the molar value.

Key:
RecG⋅DNA(A40:B40) [1] = molecular target: T1, RecG⋅DNA(A40:B40) (Thermotoga maritima, UniProt Q9WY48); experiment: Pi release with excess ATP, global fit to ATPase cycle model; type: biochemical; settings: fixed to be consistent with K i for ADP
T1 construct: made in house
T1 sequence (Q9WY48 1-780): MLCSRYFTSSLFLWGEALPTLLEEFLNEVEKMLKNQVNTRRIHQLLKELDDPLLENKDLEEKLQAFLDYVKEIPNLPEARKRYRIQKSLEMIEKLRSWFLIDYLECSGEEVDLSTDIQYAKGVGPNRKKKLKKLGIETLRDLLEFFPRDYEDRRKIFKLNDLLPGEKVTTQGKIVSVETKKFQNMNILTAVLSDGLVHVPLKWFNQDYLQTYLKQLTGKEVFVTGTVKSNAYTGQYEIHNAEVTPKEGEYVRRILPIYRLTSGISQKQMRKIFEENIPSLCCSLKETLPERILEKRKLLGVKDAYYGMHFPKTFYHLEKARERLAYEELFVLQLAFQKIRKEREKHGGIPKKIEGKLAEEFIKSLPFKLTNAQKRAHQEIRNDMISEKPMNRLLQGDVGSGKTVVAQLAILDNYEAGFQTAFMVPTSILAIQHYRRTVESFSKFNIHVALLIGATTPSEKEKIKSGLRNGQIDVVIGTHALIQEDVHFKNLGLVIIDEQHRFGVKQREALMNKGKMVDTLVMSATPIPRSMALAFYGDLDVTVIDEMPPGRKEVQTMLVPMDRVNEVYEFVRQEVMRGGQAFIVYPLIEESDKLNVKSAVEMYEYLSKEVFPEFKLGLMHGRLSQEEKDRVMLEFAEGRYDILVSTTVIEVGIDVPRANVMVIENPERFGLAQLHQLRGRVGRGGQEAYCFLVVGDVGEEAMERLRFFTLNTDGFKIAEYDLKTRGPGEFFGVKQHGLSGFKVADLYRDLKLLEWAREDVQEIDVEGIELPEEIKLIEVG
Procedure: The rate of Pi release was measured after mixing RecG⋅DNA with excess ATP, using the phosphate biosensor, in the stopped-flow apparatus (Figure 6A). […] Both phases are dependent on ATP concentration. The lag decreased, while the rate of the linear phase increased with greater concentrations of ATP. The lag is due to the steps prior to Pi release, namely ATP binding and cleavage. […] Such a burst phase would result from the relatively fast Pi release of the initial cycle before the Pi release of subsequent cycles was limited by slow ADP release.
(§1) Figure 6 ATPase cycle measurements with unmodified nucleotides. (A) Phosphate measurements at different ATP concentrations. 0.5 µM RecG, premixed with 2.5 µM DNA (A40:B40), was then mixed in the stopped-flow apparatus with ATP at the micromolar concentrations shown, in the presence of 10 µM MDCC-PBP. (B) Best fit time courses of the Pi release, based upon a model of the ATPase cycle, as described in the text. Curves were obtained by glogal fitting the curves at different concentrations, using Global kinetic Explorer. Note that in comparison, the experimental time courses show a small transient of Pi at times <100 ms. This is likely to be due to free Pi and this behavior, overlaying a lag, has been observed previously in multi-turnover measurements. (C) ADP Release kinetics. 10 µM RecG⋅DNA (A40∶B40) was pre-bound with 10 µM ADP before mixing with an excess of mantADP (20 µM): these concentrations are final in the mixing chamber. The increase in fluorescence was fitted to single exponential giving the dissociation rate constant of 11.4 (±2.2) s^−1. Rate constants were independent of mantADP concentration in the range of 20–80 µM.
A scheme of the ATPase cycle (Figure 2) was used to simulate the data to assess the individual rate constants. […] The simulated traces (Figure 6B) were obtained from a global fit to the experimental data. This was done by allowing only the rate constants that have maximum influence on the curve shapes to vary. Cleavage and Pi release were assumed to be irreversible. For the fit, Pi release was fixed at 100 s^–1, ADP release at 12.5 s^–1, as the fitting was relatively insensitive to changes in these constants. […] The resulting best fit gave rate constants for ATP binding as 0.65 (±0.02) µM^−1s^−1, dissociation of ATP as 10.0 (±0.6) s^−1, cleavage as 7.1 (±0.1) s^−1. The fit gave a cleavage rate constant similar to the value of k cat from the steady-state analysis (Table 1a). The rate constant for ADP release may be only slightly larger than that of cleavage step.
Data were fitted to theoretical equations using the stopped-flow software or Grafit. Kinetic simulations were performed using Berkeley Madonna (Version 8.3, University of California at Berkeley) and using Global Kinetic Explorer (Kintek). […]

RecG = molecular target: T2, RecG (Thermotoga maritima, UniProt Q9WY48); experiment: Steady-state ATPase rate measurements with phosphate biosensor MDCC-PBP; type: biochemical; settings: 10 µM ATP, varying inhibitor, 500 nM DNA junction (A40:B40), 20°C
T2 construct: made in house
T2 sequence (Q9WY48 1-780): T1 sequence (Q9WY48 1-780)
Text: Steady-state measurements were made to gain an overall assessment of the reaction and the affinities of various nucleotides before investigating the individual steps in the ATPase cycle. A two-strand DNA junction, which contains two 20-bp regions of complementary and non-complementary sequences (A40:B40 Figure 1 and Table S1), was used in all these measurements. This forms a Y-shape structure and RecG translocates one single-stranded arm, but then remains bound to the end of the junction still hydrolyzing ATP [10].
All reactions with RecG and DNA were done at 20°C in a buffer containing 50 mM Tris⋅acetate (pH 8.0), 30 mM potassium acetate, 3 mM magnesium acetate and 1 mM DTT. ATPase measurements using MDCC-PBP were taken in the presence of a Pi mop, as described above. Steady-state ATPase measurements were taken in a solution (60 µl) at 20°C, containing 10 nM RecG, 500 nM DNA junction (A40∶B40, see Table S1) and 10 µM MDCC-PBP with varying nucleotide concentrations as substrate or inhibitor [23].

RecG⋅DNA(A40:B40) [2] = molecular target: T1, RecG⋅DNA(A40:B40); experiment: ADP dissociation kinetics by displacement with excess mantADP; type: binding
Procedure: as §1, with “10 µM RecG⋅DNA (A40∶B40) was pre-bound with 10 µM ADP before mixing with an excess of mantADP (20 µM): these concentrations are final in the mixing chamber.” left out, “Rate constants were independent of mantADP concentration in the range of 20–80 µM.” left out
A direct measurement of ADP dissociation kinetics was possible because of its relatively tight binding to RecG, which allowed quantitative formation of the ADP complex. […] The rate constant for dissociation was determined from a single exponential fit as 11.4 (±2) s^−1 (Figure 6C). This value fits well with the model whereby the dissociation rate constant is calculated as ≥12.5 s^−1.

Nc1ncnc2c1ncn2[C@@H]1O[C@H](COP(=O)(O)OP(=O)(O)O)[C@@H](O)[C@H]1O [ADP]
ADP binding rate constant in the model (RecG⋅DNA(A40:B40) [1]): 1.7 µM^−1s^–1 | pKi (RecG): 5.14 | ADP dissociation rate constant (RecG⋅DNA(A40:B40) [2]; 10 µM RecG⋅DNA pre-bound with 10 µM ADP, mixed with 20 µM mantADP): 11.4 (±2.2) s^−1 | estimated ADP association rate constant (RecG⋅DNA(A40:B40) [2]; from dissociation rate constant and K i): 1.6e+06 M⁻¹ s⁻¹
